From patent US8709405B2, “Cancer vaccines containing epitopes of oncofetal antigen” (South Alabama Medical Science Foundation, priority 2002, dated 2014)

Tests used:
Format in all cases: cell-based, BALB/c mouse
Th1 clone H1 = test: BUdR incorporation ELISA proliferation assay, Th1 clone H1; conditions: Table 12
Procedure: (§1) The epitopes recognized by 15 iLRP-reactive T cell clones derived from either naive BALB/c mice, BALB/c mice bearing MCA1315 fibrosarcoma tumors, or from BALB/c mice immunized with either 1 or 10 μg of recombinant murine iLRP were determined by testing the proliferation of those clones to overlapping peptides spanning the region of the iLRP molecule recognized by each clone in the presence of IL-2, as a growth factor for T cells and irradiated, T cell-depleted, syngeneic spleen cells as antigen-presenting cells. Proliferation was measured through ELISA determination of 5-bromodeoxyuridine incorporation during culture.
(§2) More specifically, the epitope-specificity of the iLRP-specific Th1, Tc, and Ts clones was determined using a modification of the 5′-bromodeoxyuridine (BudR) incorporation ELISA technique described in Rohrer, J. W., A. L. Barsoum, D. L. Dyess, J. A. Tucker, and J. H. Coggin, Jr. 1999. Human breast carcinoma patients develop clonable oncofetal antigen-specific effector and regulatory T lymphocytes. J. Immunol. 162:6880, using the Biotrak BUdR incorporation assay (Amersham, Arlington Heights, Ill.). […] When the required color density was reached, the reaction was stopped by adding 25 μl of 1M sulfuric acid to each well and the plate read on a microELISA reader at 450 nm. […]

Th1 clone L3 = test: BUdR incorporation ELISA proliferation assay, Th1 clone L3; conditions: Table 12
Procedure: as §1, §2

[1] = test system: CD8 iLRP-specific T cell clone M11 (Ts); test: BUdR incorporation ELISA proliferation assay, Ts clone M11; conditions: Table 5
Procedure: as §1, §2

Tc Clone L2 = test: BUdR incorporation ELISA proliferation assay, Tc clone L2; conditions: Table 11
Procedure: as §1, §2

Th1 Clone NC1 = test: BUdR incorporation ELISA proliferation assay, Th1 clone NC1; conditions: Table 11
Procedure: as §1, §2

CD8 T cell clone M3 (Tc) = test: BUdR incorporation ELISA proliferation assay, Tc clone M3; conditions: Table 4
Procedure: as §1, §2

Th1 clone M2 = test: BUdR incorporation ELISA proliferation assay, Th1 clone M2; conditions: Table 12
Procedure: as §1, §2

Th1 clone NC4 = test: BUdR incorporation ELISA proliferation assay, Th1 clone NC4; conditions: Table 12
Procedure: as §1, §2

[2] = 100 ng/well, APC, 100 U/ml IL-2, two values given

AQPEVADWSEGV [P21 (241-252)]
Proliferation Results (A450) of Th1 Clone H1 (Th1 clone H1; [2]): .02, .02 A450
Response of clone L3 (in words) (Th1 clone L3): responded best

ATGATPIAGRFT [P18 (aa 93-104)]
Proliferation of clone M11 (in words) [1]: proliferated equally well

EEFQGEWTAPAP [P17 (225-236)]
Proliferation of CD8 Tc clone L2 (in words) (Tc Clone L2): proliferated identically

GEWTAPAPEFTA [P18 (229-240)]
Response of Th1 clone NC1 (in words) (Th1 Clone NC1): responded best
Proliferation of CD8 Tc clone L2 (in words) (Tc Clone L2): proliferated identically

INLKRTWEKLLL [P7 (aa 49-60)]
Proliferation of clone M3 (in words) (CD8 T cell clone M3 (Tc)): proliferated to iLRP peptides 7 and 8 equally well

QVPSVPIQQFPT [P24 (253-264)]
Response of clone M2 (in words) (Th1 clone M2): responded best

RTWEKLLLAARA [P8 (aa 53-64)]
Proliferation of clone M3 (in words) (CD8 T cell clone M3 (Tc)): proliferated to iLRP peptides 7 and 8 equally well

SAAPTAQATEWV [P30 (277-288)]
Response of clone H1 (in words) (Th1 clone H1): responded best

TAQATEWVGATT [P31 (281-292)]
Proliferation Results (A450) of Th1 Clone L3 (Th1 clone L3; [2]): .02, .02 A450

TEWVGATTDWS [P32 (285-295)]
Response of clone NC4 (in words) (Th1 clone NC4): responded best

TPIAGRFTPGTF [P19 (aa 97-108)]
Proliferation of clone M11 (in words) [1]: proliferated equally well
